One assay concerns the target PTGER2 (EP2) (Homo sapiens (Human), UniProt P43116). The experiment in a line: hEP2 b-arrestin assay (PathHunter HEK 293 PTGER2 b-arrestin cells). It counts as cell-based. To be noted: antagonistic activity, beta-arrestin assay; read-out: hEP2 b-arr IC50. On the procedure:
Plate is pre-incubated 15 minutes at 37° C. Then five microliters of PGE2 (final conc. 5 μM) are transferred into the assay plate. Plate is incubated 120 minutes at 37° C.
(each concentration is measured in duplicate)

In a further assay the target is PTGER4 (EP4) (Homo sapiens (Human), UniProt P35408). Briefly: cell-based.
PTGER4 (EP4), sequence (P35408 whole entry): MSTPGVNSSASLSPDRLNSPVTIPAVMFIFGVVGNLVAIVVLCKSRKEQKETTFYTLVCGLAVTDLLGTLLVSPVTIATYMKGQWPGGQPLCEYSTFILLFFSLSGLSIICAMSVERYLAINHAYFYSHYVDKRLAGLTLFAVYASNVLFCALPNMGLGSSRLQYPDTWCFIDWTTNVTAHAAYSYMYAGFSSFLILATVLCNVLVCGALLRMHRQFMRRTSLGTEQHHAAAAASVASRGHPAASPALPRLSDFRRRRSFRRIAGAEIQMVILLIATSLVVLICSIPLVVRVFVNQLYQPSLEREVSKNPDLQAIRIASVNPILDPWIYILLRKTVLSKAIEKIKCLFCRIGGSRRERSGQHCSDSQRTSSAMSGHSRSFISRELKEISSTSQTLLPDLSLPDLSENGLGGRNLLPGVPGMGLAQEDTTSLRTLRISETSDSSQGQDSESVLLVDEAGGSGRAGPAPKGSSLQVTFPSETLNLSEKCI

Each structure is given as a SMILES string.

PTGER2 (EP2), sequence (P43116 whole entry): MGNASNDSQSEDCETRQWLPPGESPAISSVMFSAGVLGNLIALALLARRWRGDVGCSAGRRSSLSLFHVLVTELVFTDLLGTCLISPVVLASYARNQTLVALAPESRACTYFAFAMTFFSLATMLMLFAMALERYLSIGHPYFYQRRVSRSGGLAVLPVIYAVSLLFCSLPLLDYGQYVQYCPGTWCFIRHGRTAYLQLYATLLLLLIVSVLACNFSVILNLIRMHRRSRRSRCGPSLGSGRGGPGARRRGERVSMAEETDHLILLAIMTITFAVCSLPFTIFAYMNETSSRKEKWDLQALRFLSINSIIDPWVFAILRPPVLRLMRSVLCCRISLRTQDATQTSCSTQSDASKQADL

For the molecule `O=C(O)c1ccc(-c2cc(NCCc3cc(F)c4sccc4c3)ncn2)cc1OC1CC1` [Example 449, 2-Cyclopropoxy-4-{6-[2-(7-fluoro-benzo[b]thiophen-5-yl)-ethylamino]-pyrimidin-4-yl}-benzoic acid], the IC50 is 83 nM on PTGER2 (EP2) and 46 nM at PTGER4 (EP4).

Regarding `CCOc1cc(-c2cc(NCCc3ccc4sccc4c3F)ncn2)sc1C(=O)O` [Example 367, 3-Ethoxy-5-{6-[2-(4-fluoro-benzo[b]thiophen-5-yl)-ethylamino]-pyrimidin-4-yl}-thiophene-2-carboxylic acid], the IC50 on PTGER2 (EP2) was 7 nM; against PTGER4 (EP4), 2 nM.

As for `CCc1cc(-c2cc(NCCc3c(OC)cc4ccccc4c3C)ncn2)ccc1C(=O)O` [Example 446, 2-Ethyl-4-{6-[2-(3-methoxy-1-methyl-naphthalen-2-yl)-ethylamino]-pyrimidin-4-yl}-benzoic acid], the values for the IC50 at PTGER2 (EP2) and against PTGER4 (EP4) were 32 nM and 108 nM, respectively.

In the case of `CCCc1cc(-c2cc(NCCc3cc(F)c4sccc4c3)ncn2)ccc1C(N)=O` [Example 457, 4-{6-[2-(7-Fluoro-benzo[b]thiophen-5-yl)-ethylamino]-pyrimidin-4-yl}-2-propyl-benzamide], the IC50 on PTGER2 (EP2) turned out to be 200 nM; at PTGER4 (EP4) it was 176 nM.

As to `CCCc1cc(-c2cc(NCCc3cc4c(cc3OC)OCCO4)ncn2)ccc1CC(=O)O` [Example 387, (4-{6-[2-(7-Methoxy-2,3-dihydro-benzo[1,4]dioxin-6-yl)-ethylamino]-pyrimidin-4-yl}-2-propyl-phenyl)-acetic acid], the IC50 at PTGER2 (EP2) stood at 61 nM; on PTGER4 (EP4) it was 49 nM.

In the case of `COc1cc(-c2cc(NCCc3ccc4sccc4c3F)ncn2)ccc1CC(=O)O` [Example 382, (4-{6-[2-(4-Fluoro-benzo[b]thiophen-5-yl)-ethylamino]-pyrimidin-4-yl}-2-methoxy-phenyl)-acetic acid], the IC50 is 160 nM on PTGER2 (EP2) and 81 nM at PTGER4 (EP4).

Take `COc1cc(-c2cc(NCCc3cc(F)c4sccc4c3)ncn2)ccc1C(=O)O` [Example 497, 4-{6-[2-(7-Fluoro-benzo[b]thiophen-5-yl)-ethylamino]-pyrimidin-4-yl}-2-methoxy-benzoic acid]: the IC50 on PTGER2 (EP2) came to 449 nM; on PTGER4 (EP4), 443 nM.

`COc1cc(-c2cc(NCCc3ccc4c(c3C)OCCO4)ncn2)ccc1OCCC(=O)O` [Example 507, 3-(2-Methoxy-4-{6-[2-(5-methyl-2,3-dihydro-benzo[1,4]dioxin-6-yl)-ethylamino]-pyrimidin-4-yl}-phenoxy)-propionic acid]: the figures for the IC50 on PTGER2 (EP2) and against PTGER4 (EP4) were 170 nM and 209 nM, respectively.

With `O=c1nc(-c2ccc(-c3cc(NCCc4cc(F)c5sccc5c4)ncn3)cc2)o[nH]1` [Example 543, 5-(4-(6-((2-(7-fluorobenzo[b]thiophen-5-yl)ethyl)amino)pyrimidin-4-yl)phenyl)-[1,2,4]oxadiazol-3(2H)-one], the figures for the half-inhibitory concentration (IC50) on PTGER2 (EP2) and against PTGER4 (EP4) were 612 nM and 124 nM, respectively.

For the molecule `COc1cc2c(cc1CCNc1cc(-c3ccc(CC(=O)O)c(OC(F)(F)F)c3)ncn1)OCCO2` [Example 450, (4-{6-[2-(7-Methoxy-2,3-dihydro-benzo[1,4]dioxin-6-yl)-ethylamino]-pyrimidin-4-yl}-2-trifluoromethoxy-phenyl)-acetic acid], the IC50 is 66 nM on PTGER2 (EP2) and 97 nM on PTGER4 (EP4).

For `Fc1cc(CCNc2cc(-c3ccc4[nH]ccc4c3)ncn2)cc2ccsc12` [Example 539, [2-(7-Fluoro-benzo[b]thiophen-5-yl)-ethyl]-[6-(1H-indol-5-yl)-pyrimidin-4-yl]amine], the IC50 at PTGER2 (EP2) turned out to be 452 nM; against PTGER4 (EP4) it was 225 nM.

On to `O=c1c(O)c(-c2ccc(-c3cc(NCCc4cc(F)c5sccc5c4)ncn3)cc2)c1=O` [Example 536, 3-(4-{6-[2-(7-Fluoro-benzo[b]thiophen-5-yl)-ethylamino]-pyrimidin-4-yl}-phenyl)-4-hydroxy-cyclobut-3-ene-1,2-dione], for which the IC50 came to 203 nM at PTGER2 (EP2) and 28 nM against PTGER4 (EP4).

As for `CCCc1cc(-c2cc(NCCc3cc4ccsc4c(F)c3OC)ncn2)ccc1C(=O)O` [Example 483, 4-{6-[2-(7-Fluoro-6-methoxy-benzo[b]thiophen-5-yl)-ethylamino]-pyrimidin-4-yl}-2-propyl-benzoic acid], the IC50 on PTGER2 (EP2) was 26 nM; against PTGER4 (EP4) it was 115 nM.

As to `CCCOc1cc(-c2cc(NCCc3cc4c(cc3OC)OCCO4)ncn2)ccc1CC(=O)O` [Example 480, (4-{6-[2-(7-Methoxy-2,3-dihydro-benzo[1,4]dioxin-6-yl)-ethylamino]-pyrimidin-4-yl}-2-propoxy-phenyl)-acetic acid], the IC50 at PTGER2 (EP2) amounted to 170 nM; against PTGER4 (EP4) it was 207 nM.

With `CCOc1cc(-c2cc(NCCc3cc(C(F)(F)F)c4sccc4c3)ncn2)sc1C(=O)O` [Example 488, 3-Ethoxy-5-{6-[2-(7-trifluoromethyl-benzo[b]thiophen-5-yl)-ethylamino]-pyrimidin-4-yl}-thiophene-2-carboxylic acid], the 50% inhibitory concentration (IC50) was 723 nM at PTGER2 (EP2) and 45 nM against PTGER4 (EP4).

Consider `CCOc1cc(-c2cc(NCCc3cc(F)c4sccc4c3)ncn2)sc1C(=O)O` [Example 362, 3-Ethoxy-5-{6-[2-(7-fluoro-benzo[b]thiophen-5-yl)-ethylamino]-pyrimidin-4-yl}-thiophene-2-carboxylic acid], for which the IC50 stood at 20 nM on PTGER2 (EP2) and 6 nM on PTGER4 (EP4).

For the molecule `COc1c(CCNc2cc(-c3ccc(CC(=O)O)c(CC(C)C)c3)ncn2)cc2ccsc2c1F` [Example 410, (4-{6-[2-(7-Fluoro-6-methoxy-benzo[b]thiophen-5-yl)-ethylamino]-pyrimidin-4-yl}-2-isobutyl-phenyl)-acetic acid], the IC50 at PTGER2 (EP2) came to 153 nM; at PTGER4 (EP4) it was 113 nM.

As to `COc1cc(-c2cc(NCCc3cc(F)c4sccc4c3)ncn2)ccc1CC(=O)O` [Example 475, (4-{6-[2-(7-Fluoro-benzo[b]thiophen-5-yl)-ethylamino]-pyrimidin-4-yl}-2-methoxy-phenyl)-acetic acid], the results for the IC50 at PTGER2 (EP2) and against PTGER4 (EP4) were 663 nM and 62 nM, respectively.

Regarding `CCOc1cc(-c2cc(NCCc3cc(F)c4sccc4c3)ncn2)ccc1OCCC(=O)O` [Example 422, 3-(2-Ethoxy-4-{6-[2-(7-fluoro-benzo[b]thiophen-5-yl)-ethylamino]-pyrimidin-4-yl}-phenoxy)-propionic acid], the figures for the IC50 at PTGER2 (EP2) and against PTGER4 (EP4) were 249 nM and 23 nM, respectively.

With `Cc1c(CCNc2cc(-c3ccc(CC(=O)O)c(OC(F)(F)F)c3)ncn2)ccc2c1OCCO2` [Example 509, (4-{6-[2-(5-Methyl-2,3-dihydro-benzo[1,4]dioxin-6-yl)-ethylamino]-pyrimidin-4-yl}-2-trifluoromethoxy-phenyl)-acetic acid], the IC50 at PTGER2 (EP2) amounted to 29 nM; against PTGER4 (EP4), 356 nM.

Regarding `CCOc1cc(-c2cc(NCCc3cc(F)c4sccc4c3)ncn2)ccc1CC(=O)O` [Example 363, (2-Ethoxy-4-{6-[2-(7-fluoro-benzo[b]thiophen-5-yl)-ethylamino]-pyrimidin-4-yl}-phenyl)-acetic acid], the concentration for half-maximal inhibition (IC50) on PTGER2 (EP2) was determined as 479 nM; against PTGER4 (EP4) it was 59 nM.

On to `CCSc1cc(-c2cc(NCCc3cc(F)c4sccc4c3)ncn2)ccc1C(=O)O` [Example 533, 2-Ethylsulfanyl-4-{6-[2-(7-fluoro-benzo[b]thiophen-5-yl)-ethylamino]-pyrimidin-4-yl}-benzoic acid], for which the half-maximal inhibitory concentration (IC50) stood at 211 nM at PTGER2 (EP2) and 53 nM against PTGER4 (EP4).

On to `CCCOc1cc(-c2cc(NCCc3ccc4sccc4c3F)ncn2)ccc1CC(=O)O` [Example 393, (4-{6-[2-(4-Fluoro-benzo[b]thiophen-5-yl)-ethylamino]-pyrimidin-4-yl}-2-propoxy-phenyl)-acetic acid], for which the IC50 on PTGER2 (EP2) stood at 155 nM; at PTGER4 (EP4) it was 166 nM.

As to `O=C(O)c1ccc(-c2cc(NCCc3cc(F)c4sccc4c3)ncn2)cc1O` [Example 563, 4-{6-[2-(7-Fluoro-benzo[b]thiophen-5-yl)-ethylamino]-pyrimidin-4-yl}-2-hydroxy-benzoic acid], the IC50 came to 985 nM on PTGER2 (EP2) and 582 nM on PTGER4 (EP4).

With `CCOc1cc(-c2cc(NCCc3ccc4sccc4c3F)ncn2)ccc1OCCC(=O)O` [Example 421, 3-(2-Ethoxy-4-{6-[2-(4-fluoro-benzo[b]thiophen-5-yl)-ethylamino]-pyrimidin-4-yl}-phenoxy)-propionic acid], the 50% inhibitory concentration (IC50) came out at 84 nM at PTGER2 (EP2) and 22 nM against PTGER4 (EP4).

On to `COc1cc(-c2cc(NCCc3cc(F)c4sccc4c3)ncn2)ccc1OCCC(=O)O` [Example 438, 3-(4-{6-[2-(7-Fluoro-benzo[b]thiophen-5-yl)-ethylamino]-pyrimidin-4-yl}-2-methoxy-phenoxy)-propionic acid], for which the IC50 came out at 519 nM at PTGER2 (EP2) and 49 nM against PTGER4 (EP4).

`CCCc1cc(-c2cc(NCCc3ccc4scc(Cl)c4c3)ncn2)ccc1CC(=O)O` [Example 498, (4-{6-[2-(3-Chloro-benzo[b]thiophen-5-yl)-ethylamino]-pyrimidin-4-yl}-2-propyl-phenyl)-acetic acid]: the IC50 on PTGER2 (EP2) came out at 163 nM; at PTGER4 (EP4), 107 nM.

On to `CCCc1cc(-c2cc(NCCc3cc4c(cc3C)OCCO4)ncn2)ccc1CC(=O)O` [Example 526, (4-{6-[2-(7-Methyl-2,3-dihydro-benzo[1,4]dioxin-6-yl)-ethylamino]-pyrimidin-4-yl}-2-propyl-phenyl)-acetic acid], for which the IC50 was determined as 96 nM on PTGER2 (EP2) and 269 nM against PTGER4 (EP4).

Take `COc1cc2c(cc1CCNc1cc(-c3ccc(CC(=O)O)c(CC(C)C)c3)ncn1)OCCO2` [Example 411, (2-Isobutyl-4-{6-[2-(7-methoxy-2,3-dihydro-benzo[1,4]dioxin-6-yl)-ethylamino]-pyrimidin-4-yl}-phenyl)-acetic acid]: the IC50 at PTGER2 (EP2) amounted to 97 nM; against PTGER4 (EP4), 31 nM.

What is called IC50 is the point on the concentration scale where inhibition reaches its midpoint.

(Values after patent US11839613B2, “Pyrimidine derivatives as PGE2 receptor modulators” (IDORSIA PHARMACEUTICALS LTD, priority 2017, dated 2023).)
